What all share (test): relative viability (nuclei count vs DMSO), 5 days (fraction); higher = more cells survive
Compound in test [1]: C1=CC2=C(C=CC(=C2)C=C3C(=O)NC(=NCC4=CC=CS4)S3)N=C1 [RO-3306] + COc1cccc2cc(-c3nc([C@H]4CC[C@H](C(=O)O)CC4)n4ncnc(N)c34)[nH]c12 [OSI-027] (partner 0.5 µM)
The essentials: (§1)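 Values are medians from duplicate plates. Each reflects relative viability, defined as the nuclei count of treated wells over that of vehicle wells. Lung cancer cell lines in 1536-well plates were pin-tool dosed one day after seeding with one drug alone or with a fixed anchor-drug dose plus five library-drug doses (not always all listed) in √10 steps, then fixed, stained and imaged at 4× after 5 days.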

Compound in test [2]: C1=CC2=C(C=CC(=C2)C=C3C(=O)NC(=NCC4=CC=CS4)S3)N=C1 [RO-3306] + C[C@@H](Oc1cc(-c2cnn(C3CCNCC3)c2)cnc1N)c1c(Cl)ccc(F)c1Cl [Crizotinib] (partner 1 µM)
The essentials:
as §1

Compound in test [3]: C1=CC2=C(C=CC(=C2)C=C3C(=O)NC(=NCC4=CC=CS4)S3)N=C1 [RO-3306] + C[C@]1(O)C[C@@H](c2nc(-c3ccc4ccc(-c5ccccc5)nc4c3)c3c(N)nccn32)C1 [Linsitinib] (partner 1 µM)
The essentials:
as §1

Compound in test [4]: O=S(=O)(c1ccccc1)N(CC(F)(F)F)c1ccc(C(O)(C(F)(F)F)C(F)(F)F)cc1 + N=C(N)NC(=N)NCCc1ccccc1 [Phenformin] (partner 250 µM)
The essentials:
as §1

Take UMC-11: the relative viability in test [1] (first compound 0.01 µM) came out at 0.496; in test [1] (first compound 0.03162 µM), 0.384; in test [1] (first compound 0.1 µM), 0.456; in test [1] (first compound 0.3162 µM), 0.552; in test [1] (first compound 1 µM), 0.453; in test [2] (first compound 0.01 µM), 0.49. In addition, the relative viability came out at 0.555 in test [2] (first compound 0.03162 µM); 0.62 in test [2] (first compound 0.1 µM); 0.906 in test [2] (first compound 0.3162 µM); 0.48 in test [2] (first compound 1 µM); 0.998 in test [3] (first compound 0.01 µM); 0.783 in test [3] (first compound 0.03162 µM). Besides, the relative viability in test [3] (first compound 0.1 µM) stood at 1.08; in test [3] (first compound 0.3162 µM), 1.08; in test [3] (first compound 1 µM), 1.03; in test [4] (first compound 0.8 µM), 0.315; in test [4] (first compound 2.53 µM), 0.295; in test [4] (first compound 8 µM), 0.315.

Values taken from the supplement of paper PMC10307832.
